Assay results as given in patent US20250154121A1, “CYCLIC(ALKYL)(AMINO)ALKOXY-SUBSTITUTED ARYL-PYRONE COMPOUND AND USE THEREOF” (priority 2022, published 2025).
Where two headings read alike, the source gives them in different places.

What was measured:
[1] = system: Influenza A (H1N1) virus FM1 strain; experiment: Mouse pneumonia model infected with influenza A (H1N1) virus FM1 strain (lung index); assay type: in vivo, ICR mice; details: Table 13 (Example 25)
Experimental: ICR mice were taken and randomly divided into: normal control group, model control group, ribavirin control group, compound 4, compound F1, compound F2, and compound F3 according to their weight class, and each drug was given in two dosage groups (10 mice in each group). Except for the normal control group, mice were slightly anesthetized with ether and infected with 15 LD50 H1N1 influenza virus liquid FM1 strain by nasal drops (30 μl per animal). The administration was started on the day of infection at 0.2 ml/10 g by gavage each time once a day for 4 days, and the normal control and model control groups were gavaged with distilled water under the same conditions. The mice were weighed and dissected on Day 5, and the lung was weighed to calculate lung index and lung index inhibition. The results were statistically processed using t-test for comparison between groups.
(§1) ICR mice were taken and randomly divided by weight class: normal control group, model control group, oseltamivir control group, compound 4, compound F4, compound F5, compound 5, and compound 7 according to their weight class, and each drug was given in two dosage groups (10 mice in each group). Except for the normal control group, mice were slightly anesthetized with ether and infected with 15 LD50 H1N1 influenza virus liquid (FM1/PR8 strain) by nasal drops (30 μl per each animal). The administration was started on the day of infection at 0.2 ml/10 g by gavage each time once a day for 4 days, and the normal control and model control groups were gavaged with distilled water under the same conditions. The mice were weighed and dissected on Day 5, and lung was weighed to calculate lung index and lung index inhibition. The results were statistically processed using t-test for comparison between groups.
(§2) ICR mice were taken and randomly divided into 9 groups according to the body weight: a normal control group, model control group, oseltamivir control group, and two dosage groups of Compound 9, Compound 12 and Compound 2, 10 mice in each group. Except the normal control group, mice were slightly anesthetized with ether and infected with 15 LD50 H1N1/PR8 influenza virus liquid by nasal drops at 30 μl per mouse. The administration was started on the day of infection, at 0.2 ml/10 g each time by gavage once a day for 4 days, and the normal control and model control groups were gavaged with distilled water under the same conditions. The mice were weighed and dissected on Day 5, and lungs were weighed to calculate lung index and lung index inhibition. The results were statistically processed using t-test for comparison between groups.

[2] = system: Influenza A (H1N1) virus PR8 strain; experiment: Mouse pneumonia model infected with influenza A (H1N1) virus PR8 strain (lung index); assay type: in vivo, ICR mice; details: Table 12 (Example 25)
Experimental: as §1, §2

[3] = system: Human Coronavirus 229E (HCoV-229E); experiment: animal or person; assay type: in vivo
[4] = system: Sendai strain of parainfluenza virus; assay type: in vivo; details: Table 11 (Example 24)
[5] = Acute toxicity test in mice (single gavage, 14-day observation); assay type: in vivo
Experimental: Seventy ICR mice, weighing 17-21 g, were randomly divided into 7 groups according to fasting body weight: a normal control group and 6 dose groups of 475, 633, 844, 1125, 1500 and 2000 mg of the test drug (compound 4)/kg, 10 mice in each group, 50/50 male and female. After fasting for about 15 h, each dosing group was administered once by gavage in a volume of 40 ml/kg, and the control group was gavaged with an equal volume of 0.5% sodium carboxymethylcellulose solution once/day, and the animals were observed continuously for 14 days after administration of the drug to observe the death of the animals.
Thirty ICR mice, weighing 17-21 g, were randomly divided into three groups according to their fasting body weight: a normal control group and 2000 mg and 4000 mg of test drug (Compound 12)/kg dose group, 10 mice in each group, 50/50 male and female. After fasting for about 15 h, each dosing group was given the drug once by gavage in a volume of 40 ml/kg, and the control group was given an equal volume of 0.5% sodium carboxymethylcellulose solution by gavage once/day, and the deaths of the animals were observed continuously for 14 days after the administration of the drug.

human coronavirus OC43 = assay type: in vivo; details: Table 6 (Example 17); 90 mg/kg/d gavage for 4 days

## CC(C)N(CCOc1ccc2c(=O)c(-c3ccccc3)coc2c1)C1CC1 [Compound 12]
[1]; 7.5 mg/kg/d gavage for 4 days
  inhibition rate %: 70.82%
  lung index: 0.73 ± 0.070 Lung weight * 100/body weight
[1]; 15 mg/kg/d gavage for 4 days
  inhibition rate %: 93.59%
  lung index: 0.71 ± 0.042 Lung weight * 100/body weight
[2]; 7.5 mg/kg/d gavage for 4 days
  inhibition rate %: 63.78%
  lung index: 0.74 ± 0.091 Lung weight * 100/body weight
[2]; 15 mg/kg/d gavage for 4 days
  inhibition rate %: 76.54%
  lung index: 0.72 ± 0.076 Lung weight * 100/body weight
[3]; Human coronavirus 229E, in Mus musculus, po, 96 h, Table 14 (Example 26), 7.5 mg/kg/d gavage for 4 days, read-out: inhibition rate (%)
  inhibition in vivo at 7.5 mg/kg/day: 39.8%
[3]; Human coronavirus 229E, in Mus musculus, po, 96 h, Table 14 (Example 26), 15 mg/kg/d gavage for 4 days, read-out: inhibition rate (%)
  inhibition in vivo at 15 mg/kg/day: 68.4%
[3]; Table 14 (Example 26), 7.5 mg/kg/d gavage for 4 days
  lung index: 0.86 ± 0.04 g lung weight × 100/g body weight
[3]; Table 14 (Example 26), 15 mg/kg/d gavage for 4 days
  lung index: 0.82 ± 0.07 g lung weight × 100/g body weight
[4]; 7.5 mg/kg/d gavage for 4 days
  inhibition rate %: 57.49%
  lung index: 0.77 ± 0.04 Lung weight * 100/body weight
[4]; 15 mg/kg/d gavage for 4 days
  inhibition rate %: 61.91%
  lung index: 0.76 ± 0.03 Lung weight * 100/body weight
[5]; 2000 and 4000 mg of the drug/kg single gavage, 14 days observation
  animal deaths: No animals died
[5]; acute toxicity, mice
  maximum concentration that could be administered by gavage, with no death of the animals: 4000 mg/kg

## CCN(CC)CCCC(C)Nc1ccnc2cc(Cl)ccc12 (stereo not drawn) [Chloroquine, chloroquine phosphate, reference compound]
[3]; Human coronavirus 229E, in Mus musculus, po, 96 h, read-out: inhibition rate (%), Table 4 (Example 15), 90 mg/kg/d gavage for 4 days
  inhibition in vivo at 90 mg/kg/day: 31.3%
[3]; Human coronavirus 229E, in Mus musculus, po, 96 h, read-out: inhibition rate (%), Table 5 (Example 16), 90 mg/kg/d gavage for 4 days
  inhibition in vivo at 90 mg/kg/day: 56.2%
[3]; Human coronavirus 229E, in Mus musculus, po, 96 h, read-out: inhibition rate (%), Table 10 (Example 23), 90 mg/kg/d gavage for 4 days
  inhibition in vivo at 90 mg/kg/day: 52.9%
[3]; Human coronavirus 229E, in Mus musculus, po, 96 h, read-out: inhibition rate (%), Table 14 (Example 26), 90 mg/kg/d gavage for 4 days
  inhibition in vivo at 90 mg/kg/day: 62.8%
[3]; Table 4 (Example 15), 90 mg/kg/d gavage for 4 days
  lung index: 0.78 ± 0.04 g lung weight × 100/g body weight
[3]; Table 5 (Example 16), 90 mg/kg/d gavage for 4 days
  lung index: 0.70 ± 0.04 g lung weight × 100/g body weight
[3]; Table 10 (Example 23), 90 mg/kg/d gavage for 4 days
  lung index: 0.80 ± 0.02 g lung weight × 100/g body weight
[3]; Table 14 (Example 26), 90 mg/kg/d gavage for 4 days
  lung index: 0.83 ± 0.05 g lung weight × 100/g body weight
Human coronavirus OC43
  inhibition rate %: 42.72%
  lung index: 0.80 ± 0.05 g lung weight × 100/g body weight

## CN(CCOc1ccc2c(=O)c(-c3ccccc3)coc2c1)C1CC1 [Compound 9]
[1]; 7.5 mg/kg/d gavage for 4 days
  inhibition rate %: 79.57%
  lung index: 0.72 ± 0.069 Lung weight * 100/body weight
[1]; 15 mg/kg/d gavage for 4 days
  inhibition rate %: 84.63%
  lung index: 0.71 ± 0.052 Lung weight * 100/body weight
[2]; 7.5 mg/kg/d gavage for 4 days
  inhibition rate %: 58.71%
  lung index: 0.74 ± 0.046 Lung weight * 100/body weight
[2]; 15 mg/kg/d gavage for 4 days
  inhibition rate %: 91.64%
  lung index: 0.71 ± 0.060 Lung weight * 100/body weight
[3]; Human coronavirus 229E, in Mus musculus, po, 96 h, Table 10 (Example 23), 7.5 mg/kg/d gavage for 4 days, read-out: inhibition rate (%)
  inhibition in vivo at 7.5 mg/kg/day: 46.5%
[3]; Table 10 (Example 23), 7.5 mg/kg/d gavage for 4 days
  lung index: 0.81 ± 0.10 g lung weight × 100/g body weight
[4]; 7.5 mg/kg/d gavage for 4 days
  inhibition rate %: 40.51%
  lung index: 0.79 ± 0.05 Lung weight * 100/body weight
[4]; 15 mg/kg/d gavage for 4 days
  inhibition rate %: 55.59%
  lung index: 0.77 ± 0.05 Lung weight * 100/body weight
